Test results as given in ChEMBL document CHEMBL1156519, “Roles for two aminopeptidases in vacuolar hemoglobin catabolism in Plasmodium falciparum” (J Biol Chem, 2007).
Activity calls are given as the source filed them. The rule behind the calls is not given here. Peptide text beside a SMILES is read from it. * marks the point of attachment. CH2F = FC*

Experiments:
[1] = Inhibition of DPAP1 assessed as blocking of release of beta-naphthylamine from Ala-Pro-Ala-betaNA substrate at 1 uM
[2] = Inhibition of DPAP1 assessed as blocking of release of beta-naphthylamine from Ala-Pro-Ala-betaNA substrate at 1 uM in presence of recombinant Plasmodium falciparum aminopeptidase P
Plasmodium falciparum [3] = assay: Antimalarial activity as DNA content of ring stage Plasmodium falciparum 3D7 in medium + isoleucine by flow cytometry; assay type: functional, organism-based
Plasmodium falciparum [4] = assay: Antimalarial activity as inhibition of Plasmodium falciparum 3D7 replication in medium + isoleucine after 65 hrs; assay type: functional, organism-based; conditions: 3D7, 65 h
Plasmodium falciparum [5] = assay: Inhibition of aminopeptidase N in Plasmodium falciparum food vacuole extract
Plasmodium falciparum [6] = assay: Antimalarial activity as DNA content of ring stage Plasmodium falciparum 3D7 in medium with all amino acids by flow cytometry; assay type: functional, organism-based
Plasmodium falciparum [7] = assay: Antimalarial activity as inhibition of Plasmodium falciparum 3D7 replication in medium with all amino acids after 65 hrs; assay type: functional, organism-based; conditions: 3D7, 65 h

| Activity [1] | Activity [2] | EC50 (Plasmodium falciparum [4]) [nM] | Activity (Plasmodium falciparum [5]) | EC50 (Plasmodium falciparum [7]) [nM] | Structure (SMILES) | Activity (Plasmodium falciparum [3]) | Activity (Plasmodium falciparum [6]) |
| --- | --- | --- | --- | --- | --- | --- | --- |
| inactive | – | – | – | – | CC(C)CC(=O)N[C@H](C(=O)N[C@H](C(=O)N[C@@H](CC(C)C)[C@@H](O)CC(=O)N[C@@H](C)C(=O)N[C@@H](CC(C)C)[C@@H](O)CC(=O)O)C(C)C)C(C)C | – | – |
| inactive | inactive | – | – | – | CC(C)C[C@H](NC(=O)[C@H]1O[C@@H]1C(=O)O)C(=O)NCCCCN=C(N)N | – | – |
| Active | Active | – | – | – | N=C(N)NCCC[C@H](NC(=O)[C@@H]1CCCN1)C(=O)CF (H-Pro-Arg-CH2F) | – | – |
| inactive | inactive | 900 | Active | 1800 | CC(C)C[C@H](NC(=O)[C@@H](O)[C@H](N)Cc1ccccc1)C(=O)O [UBENIMEX] | Active | Active |
